Data: PubChem BioAssay (NCI)
Several values for one entry are separate records, joined by “and”; a condition that tells them apart may be missing. Identical values can stand only once.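 Five compound concentrations were applied to cells in 96-well plates for 48 hours; endpoints were derived by simple linear interpolation of the resulting dose-response curve. GI50 marks 50% less growth. TGI denotes the concentration required for complete inhibition of growth.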

System: MDA-MB-468 breast
Assay: NCI anticancer screen, dose series, 48 h

SMILES	GI50	TGI
CCCOC(=O)N[C@H]1CCc2c(Cl)c(OC)c(OC)c(OC)c2-c2ccc(SC)c(=O)cc21	< 0.01 µM	16.3 µM
CCOc1cc(C(C)(C)C)ccc1C1=N[C@H](c2ccc(Cl)cc2)[C@H](c2ccc(Cl)cc2)N1C(=O)N1CCN(CC#Cc2cccc3c2CN([C@@H]2CCC(=O)NC2=O)C3=O)CC1	0.0321 µM	> 100 µM
C=C(C)[C@@H]1CC[C@]2(COCCCN)CC[C@]3(C)[C@H](CC[C@@H]4[C@@](C)(CCCNCCCN)[C@H](C(=C)C)CC[C@]43C)[C@@H]12	1.87 µM	3.75 µM
O=c1[nH]c2ccccc2cc1-c1nc2ccc(Cl)cc2[nH]1	3.26 µM	> 100 µM
Cc1cn(-c2cc(NC(=O)c3cccc(C#Cc4cccc5[nH]nc(N)c45)c3)cc(C(F)(F)F)c2)cn1	17.1 µM	> 100 µM
COC(=O)c1ccc2[nH]c(O)c(C(=Nc3ccc(N(C)C(=O)CN4CCN(C)CC4)cc3)c3ccc4c(c3)OCO4)c2c1	0.84 µM	2.38 µM
O=C1NC(=S)S/C1=C/c1ccc2c(c1)OCO2	> 100 µM	> 100 µM
O=C(/C=C/c1ccccc1)Nc1ncc(Cc2ccccc2Cl)s1	0.37 µM	> 71.5 µM
CC/C=C\C[C@H]1CC=C2C(=O)C=C[C@@H]2CC=CCCCC(=O)O[C@@H](CCCCC)CC=C2C(=O)C=C[C@@H]2CC=CCCCC(=O)O[C@@H](CCCCC)CC=C2C(=O)C=C[C@@H]2CC=CCCCC(=O)O[C@@H](CCCCC)CC=C2C(=O)C=C[C@@H]2CC=CCCCC(=O)O1	1.7 µM	4.22 µM
C=C1c2c(C)nn(-c3ccc(C#CCOC4OC(CO)C(O)C(O)C4O)cc3)c2N(C)C23C[C@H]1C1(C)c4c(C)nn(-c5ccc(C#CCOC6OC(CO)C(O)C(O)C6O)cc5)c4N(C)C(C)(C[C@H]12)C3 (some centres undefined)	1.34 µM	2.73 µM
CN(C)C/C=C/C(=O)Nc1ccc(C(=O)N[C@@]2(C)CCC[C@@H](Nc3ncc(Cl)c(-c4c[nH]c5ccccc45)n3)C2)nc1	0.0108 µM	0.0352 µM
Cc1nnc(-c2ccc(C)c(-c3ccc(C(=O)Nc4cccc(C#N)c4)cc3)c2)o1	8.65 µM	> 25 µM
COc1ccc2c(c1)NC1=C(C(=O)OC1)C2c1cc(OC)c(OC)c(OC)c1 (centres undefined)	< 0.01 µM	< 0.01 µM
Nc1ncc(-c2cnn(C3CCNCC3)c2)cc1-c1nc2cc(Cl)ccc2o1	1.65 µM	3.29 µM
NC(CSC(c1ccccc1)(c1ccccc1)c1ccccc1)C(=O)NCC(=O)O (centres undefined)	2.88 µM	17.7 µM
O=C1C=CC(=O)C2C1C1(Cl)C(Cl)=C(Cl)C2(Cl)C1(Cl)Cl (centres undefined)	3.29 µM	11.3 µM

SMILES	GI50	TGI
CC1(C)N=C(N)N=C(N)N1c1ccc(CCC(=O)Nc2ccc(S(=O)(=O)F)cc2)c(Cl)c1	0.864 µM	> 100 µM
Nc1n[nH]c2cccc(C#Cc3cccc(NC(=O)c4cccc(C(F)(F)F)c4)c3)c12	9.71 µM	28.2 µM
COc1cccc2c1C(=N)c1c(O)c3c(c(O)c1C2=O)C[C@@](O)(C(C)=O)C[C@@H]3O[C@H]1C[C@H](N)[C@H](O)[C@H](C)O1	0.278 µM	1.28 µM
CCCC(C)c1ccc(OCCCCCCN2CCNCC2)cc1 (centres undefined)	1.71 µM	3.49 µM
O=C(Oc1ccc[nH]c1=O)c1cc([N+](=O)[O-])cc([N+](=O)[O-])c1	> 100 µM	> 100 µM
C=CC(=O)N1CCC(Oc2cc3c(Nc4ccc(Cl)c(Cl)c4F)ncnc3cc2OC)CC1	< 0.001 µM	< 0.01 µM and 0.0199 µM
COc1cc(Nc2ncccc2C(=O)Nc2nc3ccc(F)cc3s2)cc(OC)c1OC	1.22 µM	8.85 µM
CCCCCCCCn1ccc2cc(NC(=O)Cn3cc(CN4CCCCCC4)nn3)ccc21	1.65 µM	3.33 µM
O=C(O)c1ccc(CN2CCC(CN[C@@H]3C[C@H]3c3ccccc3)CC2)cc1	> 100 µM	> 100 µM
CCN(CC)CCNC(Cc1ccccc1)c1ccc(OCc2ccccc2)cc1 (centres undefined)	4.24 µM	18.3 µM
O=C(NC(=O)c1c(F)cccc1F)Nc1cccc(Oc2ncc(Cl)cn2)c1	7.78 µM	> 100 µM
CS(=O)(=O)CCNCc1coc(-c2ccc3ncnc(Nc4ccc(OCc5ccccc5)cc4)c3c2)c1	0.543 µM	3.8 µM
CN(c1ccc(NC(=O)Nc2c(Cl)cccc2Cl)cc1)c1ccnc(Nc2cccc(CS(C)(=O)=O)c2)n1	1.11 µM	6.44 µM
CCN1C(=O)c2ccc3c4c(ccc(c24)C1=O)C(=O)N(CCCNCc1ccccc1OC)C3=O	0.326 µM	1.3 µM
CCOc1cccc(/C=N/NC(=O)c2cccc(Nc3ccnc(C(F)(F)F)c3)c2)c1O	0.327 µM	> 100 µM
COc1cc(C2c3cc4c(cc3OC(C)(N3CCCC3)C2C)OCO4)cc(OC)c1OC (centres undefined)	0.419 µM	31.2 µM
